According to patent US11512091B2, “Crystal of benzoxazole derivative” (MEIJI SEIKA PHARMA CO., LTD., priority 2018, dated 2022):

What was measured:
[1] = tested on: PDE4; assay: Evaluation of PDE4 inhibition (Scintillation Proximity Assay); assay type: biochemical; conditions: SPA, [3H]-cAMP, room temperature 120 minutes; read-out: PDE4 inhibiting activity (the concentration at an inhibition rate of 50%)
Description: The PDE4 inhibiting activity was measured in the following manner, employing Scintillation Proximity Assay (SPA). The specimen compound dissolved in dimethyl sulfoxide and diluted 10 fold with a buffer solution for reaction containing 50 mM Tris-HCl (pH of 7.4), 8.3 mMMgCl2, 1.7 mM EGTA, and 3 mg/mL bovine serum albumin (BSA) was added in 10 microliters in a 96-well assay plate. After PDE4 diluted 375 fold with the buffer solution for reaction was further added in 50 microliters, a [2,8-^3H]-Adenosine-3′,5′-cyclic phosphate triethylammonium salt diluted 1,000 fold with the buffer solution for reaction was added in 40 microliters, and the resultant was left to stand still at room temperature for 120 minutes. […] Subsequently, radioactivity was measured with a liquid scintillation counter for a 96-well plate. The inhibition rate of the compound represented by formula (1) to a control was calculated according to the following calculation formula, where the blank was prepared as the buffer solution for reaction only, with no enzyme preparation, and the control was prepared with the enzyme preparation and with only dimethyl sulfoxide instead of the specimen solution. […]

[2] = Hygroscopicity test (isothermal water vapor adsorption, DVS); assay type: physicochemical; conditions: at 95% RH, 25° C., relative to weight equilibrium value at 0% RH
Description: Isothermal adsorption measurement of the I type crystal and the II type crystal of the compound represented by formula (1) was performed, using a water vapor adsorption measurement instrument (available from Surface Measurement Systems Ltd., DVS ADVANTAGE 1) (with a sample of about 10 mg, at 25° C., at from 0% RH through 95% RH). As the result of evaluation of hygroscopicity, a weight increase rate at 95% RH (weight increase from initial value/initial value×100, *initial value: weight equilibrium value at 0% RH) is presented in Table 2.

[3] = Stability test (storage of crystals, chemical purity by HPLC); assay type: physicochemical; conditions: for chemical stability (in words): thermal stability test, photostability test, accelerated stability test
Description: The I type crystal and the II type crystal of the compound represented by formula (1) were put in glass bottles (in about 300 mg each) and stored under various conditions. After the storage period, the chemical purity of the samples taken out was measured by HPLC. The conditions of each test were as follows.
Thermal stability test: 60° C., hermetically sealed, a period of 3 weeks
Photostability test: 25° C., 1.2 million lux hours (2,000 lux, for 25 days)
Accelerated stability test (hermetically sealed): 40° C., 75% RH*, a period of 1 month
Accelerated stability test (opened): 40° C., 75% RH*, a period of 1 month
As the result of evaluation of each stability, the amount of the compound represented by formula (1) contained in the crystal is presented in Table 1 as a residual ratio (a HPLC area percentage ratio to the initial value, expressed in percentage).

[4] = Accelerated stability test (hermetically sealed): 40° C., 75% RH, 1 month
[5] = Accelerated stability test (opened): 40° C., 75% RH, 1 month
[6] = Photostability test: 25° C., 1.2 million lux hours (2,000 lux, 25 days)
[7] = Thermal stability test: 60° C., hermetically sealed, 3 weeks

SMILES | IC50 [1] [nM] | Weight increase rate (%) [2] [%] | Residual ratio (%) of compound represented by formula (1) [3, 4] [%] | Residual ratio (%) of compound represented by formula (1) [3, 5] [%] | Residual ratio (%) of compound represented by formula (1) ([3]; Initial value) [%] | Residual ratio (%) of compound represented by formula (1) [3, 6] [%] | Residual ratio (%) of compound represented by formula (1) [3, 7] [%] | chemical stability (in words) [3]
CC(C)(O)C(F)(F)Oc1ccc(-c2nccs2)c2oc(N3CC4CC(C3)N4)nc12 [compound represented by formula (1), 1-((2-(3,6-diazabicyclo[3.1.1]heptan-3-yl)-7-(thiazol-2-yl)benzo[d]oxazol-4-yl)oxy)-1,1-difluoro-2-methylpropan-2-ol] | < 100 |  |  |  |  |  |  | 
CC(C)(O)C(F)(F)Oc1ccc(-c2nccs2)c2oc(N3CC4CC(C3)N4)nc12 [I type crystal, 1-((2-(3,6-diazabicyclo[3.1.1]heptan-3-yl)-7-(thiazol-2-yl)benzo[d]oxazol-4-yl)oxy)-1,1-difluoro-2-methylpropan-2-ol] |  | 0.6 | 100.1 | 100.1 | 100.0 | 100.1 | 99.8 | sufficient chemical stability
CC(C)(O)C(F)(F)Oc1ccc(-c2nccs2)c2oc(N3CC4CC(C3)N4)nc12 [II type crystal, 1-((2-(3,6-diazabicyclo[3.1.1]heptan-3-yl)-7-(thiazol-2-yl)benzo[d]oxazol-4-yl)oxy)-1,1-difluoro-2-methylpropan-2-ol] |  | 10.7 | 100.1 | 100.0 | 100.0 | 99.5 | 100.0 | sufficient chemical stability
